We go through 6 compounds from patent US10851071B2, “M-dihydroxybenzene derivative crystal and salt, and manufacturing method thereof” (Chia Tai Tianqing Pharmaceutical Group Co., Ltd., priority 2016, dated 2020).

Bounds are passed on as bounds.

Series [1] in a line: Crystal stability under humidity, heat and grinding. Particulars: RT/92.5% RH 5 and 10 days; 60° C. 5 and 10 days; grinded 10/20/30 min. It is filed as physicochemical.
The nature of series [2]: Dynamic vapour sorption (DVS), wet weight gain. It is filed as physicochemical. The note with it: 25±1° C. and 80±2% RH.
Series [3] in a line: Rough solubility test of A-type crystal and salts of the compound of formula (I). The note with it: for solubility: thermodynamic from solid; for Approximate solubility: room temperature.
Method: Hydrochloric acid, acetic acid, sodium acetate, sodium chloride, 5% glucose solution, water (buffer is a buffer solution of acetic acid/sodium acetate).
2 mg of a sample was weighed, and dissolved by adding a solvent (10 μL) thereto at room temperature. […] The total amount of the added solvents was up to 2 mL.
A short description of series [4]: Tissue distribution in SD rats after tail vein injection (LC/MS/MS). It is filed as in vivo. The protocol: SD rats were used as test animals, and the drug concentrations in plasma, lung and breast tissues of rats at different times after administrating the compound of formula (I) via the injection in tail vein were measured by using LC/MS/MS method. The tissue distribution of the compound of the present invention in rats was investigated, and pharmacokinetic characteristics thereof were evaluated.
Appropriate amounts of samples were weighed, and Luminespib, Ganetespib and the compound of formula (I) of the present invention were respectively formulated into a clear solution with a concentration of 2.5 mg/mL for intravenous injection, wherein the solvent was consisted of 10% (v/v) of DMSO, 14% (v/v) of polyoxyethylene hydrogenated castor oil 40, and 76% (v/v) of 5% aqueous glucose solution.
9 SD male rats were divided into three groups, three rats per group. The rats were administered intravenously through tail vein at a dose of 1 mg/kg after being normally fed.
Samples of blood, lung and breast tissues were collected from the rats in three groups at 0.5, 6, and 24 hours after administration, respectively. The blood sample was separated by centrifugation at 4° C., 3000 rpm/min for 15 min within half an hour after collection, so as to obtain plasma sample. The resulting plasma sample was deposited in polypropylene tubes and stored at −80° C. for LC/MS/MS analysis. After blood sample was collected, the animals were sacrificed with CO2, and the tissue samples were collected. Each tissue sample was washed twice with cold deionized water and adhered onto filter paper. Each tissue sample was then homogenized several times in MeOH/15 mM PBS (1:2) (5 mL MeOH/15 mM PBS (1:2) per gram of tissue, with dilution coefficient of 6), to ensure the formation of homogeneous phase. The whole process was carried out at a freezing point temperature. The homogenized samples were quickly frozen by using dry ice and stored at −80° C. for bioassay.
The contents of the test compounds in the plasma, lung and breast tissues of the rats after the administration by injection were measured with LC/MS/MS method.

The subject of the next series is BT-474 tumor cells. The series is described as follows: In vivo pharmacodynamic evaluation in BT-474 breast cancer transplanted tumors in nude mice. The protocol: BT-474 tumor cells were subcutaneously inoculated into the right axillary fossa of nude mice at 5×10^6/mouse to form transplanted tumors. When the volume thereof reached 100-200 mm^3, the animals were randomly grouped based on tumor volumes: 6 mice in negative control group; 6 mice in positive control group; and 6 mice in each test group. The mice in the treatment groups were intravenously injected with different concentrations of positive drug Ganetespib (20 mg/kg) and the compound of formula (I) (10 mg/kg and 20 mg/kg) three times a week, and the mice in the negative control group were administrated with equal amount of vehicles at the same time. The length (A) and width (B) of the tumor were measured twice a week by using a vernier caliper, and the tumor volume V=A×B^2/2 was thereby calculated. The calculation of relative tumor volume (RTV) follows: RTV=Vt/V0, wherein Vt was the tumor volume at the end of administration, and V0 was the tumor volume measured before administration to each cage. The pharmacodynamic evaluation index of antitumor activity was the relative tumor proliferation rate T/C (%), and the calculation formula was: TIC (%)=TRTV/CRTV×100%, wherein TRTV: RTV of the treatment group; CRTV: RTV of the negative control group. Therapeutic efficacy evaluation criteria: T/C %>60% was ineffective; T/C %≤60% with P<0.05 after being statistically processed was effective. […]

Where [5] appears, read: 0.9% NaCl solution, saline or isotonic.
Where [6] appears, read: 5% glucose solution, saline or isotonic.
[7] abbreviates: acetic acid/sodium acetate buffer pH 3.5, pH 3.5, aqueous buffer.
Setting [8] is: acetic acid/sodium acetate buffer pH 4.5, pH 4.5, aqueous buffer.
The mark [9] stands for this setting: acetic acid/sodium acetate buffer pH 5.5, pH 5.5, aqueous buffer.
The mark [10] stands for this setting: acetic acid/sodium acetate buffer pH 6.8, pH 6.8, aqueous buffer.
Setting [11] is: acetic acid/sodium acetate buffer pH 7.5, pH 7.5, aqueous buffer.
Where [12] appears, read: rats, injection dose of 1 mg/kg, same dose.

For orientation: solubility means the dissolved amount per volume that the medium holds. For `CCNC(=O)c1onc(-c2cc(C(C)C)c(O)cc2O)c1-c1ccc2c(c1)CCNC2` [A-type crystal], the crystal transformation entry in series [1] is “no crystal transformation”. In series [2], the “wet weight gain ΔW %” value is on record as “about 0.45%”. Also, the solubility in series [3] (0.01N HCl, simulated gastric fluid) was 800 to 1000 µg/mL; in series [3] (0.1N HCl, simulated gastric fluid), less than 1000 µg/mL; in series [3] (setting [5]), less than 1000 µg/mL; in series [3] (setting [6]), less than 1000 µg/mL; in series [3] (setting [7]), 80000 to 100000 µg/mL; in series [3] (setting [8]), 30000 to 50000 µg/mL. The solubility in series [3] (setting [9]) was less than 1000 µg/mL; in series [3] (acetic acid/sodium acetate buffer pH 6.5, pH 6.5, aqueous buffer) it was less than 1000 µg/mL; in series [3] (setting [10]) it was less than 1000 µg/mL; in series [3] (setting [11]) it was less than 1000 µg/mL; in series [3] (water) it was less than 1000 µg/mL.
With `CCNC(=O)c1onc(-c2cc(C(C)C)c(O)cc2O)c1-c1ccc2c(c1)CCNC2` [Compound of formula (I), 3(2,4dihydroxy-5-isopropylphenyl)-N-ethyl-4(1,2,3,4-tetrahydroisoquinolin-6-yl)isoxazole-5-carboxamide], in series [4] (SD rats, 1 mg/kg iv), the Breast tissue exposure amounted to 7.226 µM·h, the Lung exposure is 30.933 µM·h and the Plasma exposure turned out to be 0.415 µM·h. In series [4] (setting [12]), the “concentrations in lung and breast tissues compared with Luminespib and Ganetespib (in words)” value is “significantly higher”; the “tissue exposures compared with Luminespib and Ganetespib (in words)” value is listed as “significantly greater”. The “TGI (%)” value with BT-474 tumor cells (10 mpk iv three times a week, day 35 (administration stopped day 18)) was determined as 120%. Besides, the “antitumor effect compared with Ganetespib (in words)” value in the series on BT-474 tumor cells (10 mpk versus 20 mpk of Ganetespib, BT-474 transplanted mouse model) is reported as “significantly superior antitumor effect”. Besides, in series [3] (conclusion from Table 5), the “solubility depending on buffer pH (in words)” value is recorded as “higher solubility in the buffer of pH 3.5-4.5”.
In the case of `CCNC(=O)c1noc(-c2cc(C(C)C)c(O)cc2O)c1-c1ccc(CN2CCOCC2)cc1` [Luminespib, 5[2,4dihydroxy-5-isopropylphenyl]-N-ethyl-4[4-(4-morpholinylmethyl)phenyl]-3-isoxazolecarboxamide, reference compound], the Lung exposure in series [4] (SD rats, 1 mg/kg iv) came to 5.284 µM·h.
For the compound `CCNC(=O)c1onc(-c2cc(C(C)C)c(O)cc2O)c1-c1ccc2c(c1)CCNC2.Cl` [hydrochloride, 3-(2,4-dihydroxy-5-isopropylphenyl)-N-ethyl-4-(1,2,3,4tetrahydroisoquinolin-6-yl)isoxazole-5-carboxamide hydrochloride], the solubility is less than 2000 µg/mL in series [3] (setting [5]); 4600 to 5500 µg/mL in series [3] (setting [6]); 9500 to 14200 µg/mL in series [3] (setting [7]); 5800 to 7300 µg/mL in series [3] (setting [8]); less than 2000 µg/mL in series [3] (setting [9]); less than 2000 µg/mL in series [3] (setting [10]). The solubility is less than 2000 µg/mL in series [3] (setting [11]) and 5300 to 6300 µg/mL in series [3] (water). For the same compound, the “solubility compared with A-type crystal (in words)” value in series [3] (conclusion from Table 5) is “significantly higher solubilities than that of the A-type crystal”.
As for `O=S(=O)(O)O` [sulfate], the “wet weight gain ΔW %” value in series [2] is recorded as “about 0.081%”.
maleate: the “wet weight gain ΔW %” value in series [2] is on record as “about 0.379%”. The Approximate solubility in series [3] (0.9% NaCl solution) was less than 2000 µg/mL; in series [3] (5% glucose solution), 2100 to 2300 µg/mL; in series [3] (pH 3.5 buffer (acetic acid/sodium acetate)) it was 6500 to 7500 µg/mL; in series [3] (pH 4.5 buffer), 3400 to 3900 µg/mL; in series [3] (pH 5.5 buffer), less than 2000 µg/mL; in series [3] (pH 6.8 buffer), less than 2000 µg/mL. For the same compound, the results for the Approximate solubility in series [3] (pH 7.5 buffer) and in series [3] (water) were less than 2000 µg/mL and 2200 to 2600 µg/mL, respectively.
